Measured values as given in the supplement of paper PMC4862054.

Assays:
Assay in all cases: normalised response (% of control), CellTiter-Glo; higher = more viable cells (100 = DMSO, 0 = benzethonium chloride kill control)
Settings in all cases: incubation time: 72 h
[1] = tested on: BT-474
Procedure, shortened: (§1)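 Breast cancer cell lines (20 µl suspension) were seeded into 384-well plates holding compound at 5 concentrations in 10-fold steps over a compound-specific 10,000-fold range, then incubated 72 h. CellTox Green fluorescence (485/520 nm) was read first, then CellTiter-Glo luminescence after 10 min at room temperature. Each plate was normalised to 0.1 % DMSO (100) and a positive kill control (0). Each value is the normalised signal at a single concentration of the series.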

[2] = tested on: BT-549
Procedure, shortened: as §1

[3] = tested on: CAL-120
Procedure, shortened: as §1

[4] = tested on: CAL-148
Procedure, shortened: as §1

[5] = tested on: CAL-51
Procedure, shortened: as §1

[6] = tested on: CAL-85-1
Procedure, shortened: as §1

[7] = tested on: DU-4475
Procedure, shortened: as §1

[8] = tested on: HCC1143
Procedure, shortened: as §1

[9] = tested on: HCC1599
Procedure, shortened: as §1

[10] = tested on: HCC1937
Procedure, shortened: as §1

[11] = tested on: HDQ-P1
Procedure, shortened: as §1

[12] = tested on: Hs578T
Procedure, shortened: as §1

[13] = tested on: MCF-10A
Procedure, shortened: as §1

[14] = tested on: MDA-MB-231
Procedure, shortened: as §1

[15] = tested on: MDA-MB-436
Procedure, shortened: as §1

[16] = tested on: MDA-MB-453
Procedure, shortened: as §1

[17] = tested on: MDA-MB-468
Procedure, shortened: as §1

[18] = tested on: MFM-223
Procedure, shortened: as §1

[19] = tested on: SK-BR-3
Procedure, shortened: as §1

COc1cc(Nc2ncc(F)c(Nc3ccc4c(n3)NC(=O)C(C)(C)O4)n2)cc(OC)c1OC [Tamatinib] (1 nM)
normalised response [1]: 98.5% | normalised response [2]: 101% | normalised response [3]: 102% | normalised response [4]: 102% | normalised response [5]: 105% | normalised response [6]: 97.9% | normalised response [7]: 106% | normalised response [8]: 108% | normalised response [9]: 114% | normalised response [10]: 98.5% | normalised response [11]: 101% | normalised response [12]: 111% | normalised response [13]: 111% | normalised response [14]: 107% | normalised response [15]: 105% | normalised response [16]: 121% | normalised response [17]: 101% | normalised response [18]: 108% | normalised response [19]: 112%

C[C@@H]1CCN(C(=O)CC#N)C[C@@H]1N(C)c1ncnc2[nH]ccc12 [Tofacitinib] (0.5 nM)
normalised response [1]: 106% | normalised response [2]: 95.6% | normalised response [3]: 99% | normalised response [4]: 113% | normalised response [5]: 71.3% | normalised response [6]: 107% | normalised response [7]: 117% | normalised response [8]: 98% | normalised response [9]: 102% | normalised response [10]: 97.3% | normalised response [11]: 103% | normalised response [12]: 100% | normalised response [13]: 111% | normalised response [14]: 104% | normalised response [15]: 102% | normalised response [16]: 103% | normalised response [17]: 103% | normalised response [18]: 103% | normalised response [19]: 113%

COC1=CC(c2cc3ccccc3[nH]2)=N/C1=C\c1[nH]c(C)cc1C [Obatoclax] (10 nM)
normalised response [1]: 95% | normalised response [2]: 96.9% | normalised response [3]: 98.8% | normalised response [4]: 89.9% | normalised response [5]: 121% | normalised response [6]: 93.6% | normalised response [7]: 100% | normalised response [8]: 95.5% | normalised response [9]: 92.2% | normalised response [10]: 94.6% | normalised response [11]: 92.6% | normalised response [12]: 99.4% | normalised response [13]: 94.7% | normalised response [14]: 94.6% | normalised response [15]: 91% | normalised response [16]: 104% | normalised response [17]: 98.9% | normalised response [18]: 91.4% | normalised response [19]: 90.2%

CS(=O)(=O)OCCCCOS(C)(=O)=O [Busulfan] (100 nM)
normalised response [1]: 101% | normalised response [2]: 97.2% | normalised response [3]: 99.1% | normalised response [4]: 101% | normalised response [5]: 121% | normalised response [6]: 98.1% | normalised response [7]: 109% | normalised response [8]: 112% | normalised response [9]: 94.5% | normalised response [10]: 97.9% | normalised response [11]: 99.7% | normalised response [12]: 105% | normalised response [13]: 108% | normalised response [14]: 101% | normalised response [15]: 97.2% | normalised response [16]: 109% | normalised response [17]: 106% | normalised response [18]: 112% | normalised response [19]: 97.5%

CS(=O)(=O)CCNCc1ccc(-c2ccc3ncnc(Nc4ccc(OCc5cccc(F)c5)c(Cl)c4)c3c2)o1 [Lapatinib] (0.1 nM)
normalised response [1]: 102% | normalised response [2]: 101% | normalised response [3]: 96% | normalised response [4]: 110% | normalised response [5]: 110% | normalised response [6]: 106% | normalised response [7]: 109% | normalised response [8]: 99.2% | normalised response [9]: 90.2% | normalised response [10]: 98.8% | normalised response [11]: 101% | normalised response [12]: 101% | normalised response [13]: 98.4% | normalised response [14]: 100% | normalised response [15]: 86.2% | normalised response [16]: 121% | normalised response [17]: 112% | normalised response [18]: 104% | normalised response [19]: 114%

Cn1c(=O)c(F)c(Nc2ccc(I)cc2F)c2c(=O)n(C[C@@H](O)CO)cnc21 [TAK-733] (1 nM)
normalised response [1]: 45.1% | normalised response [2]: 99.2% | normalised response [3]: 95% | normalised response [4]: 105% | normalised response [5]: 86.9% | normalised response [6]: 98.3% | normalised response [7]: 92.4% | normalised response [8]: 103% | normalised response [9]: 102% | normalised response [10]: 98.1% | normalised response [11]: 83.7% | normalised response [12]: 98.6% | normalised response [13]: 83% | normalised response [14]: 108% | normalised response [15]: 98.8% | normalised response [16]: 98.7% | normalised response [17]: 100% | normalised response [18]: 113% | normalised response [19]: 104%

CN(c1ccccc1CNc1nc(Nc2ccc3c(c2)CC(=O)N3)ncc1C(F)(F)F)S(C)(=O)=O (10 nM)
normalised response [1]: 92.1% | normalised response [2]: 97% | normalised response [3]: 94.4% | normalised response [4]: 101% | normalised response [5]: 102% | normalised response [6]: 94.6% | normalised response [7]: 94.8% | normalised response [8]: 99.5% | normalised response [9]: 91.4% | normalised response [10]: 97.5% | normalised response [11]: 101% | normalised response [12]: 92% | normalised response [13]: 100% | normalised response [14]: 87.9% | normalised response [15]: 92% | normalised response [16]: 96.6% | normalised response [17]: 84.8% | normalised response [18]: 91.4% | normalised response [19]: 111%

CN(c1ccccc1CNc1nc(Nc2ccc3c(c2)CC(=O)N3)ncc1C(F)(F)F)S(C)(=O)=O (1 nM)
normalised response [1]: 95.5% | normalised response [2]: 100% | normalised response [3]: 93% | normalised response [4]: 91.6% | normalised response [5]: 96.2% | normalised response [6]: 94.9% | normalised response [7]: 95.9% | normalised response [8]: 93% | normalised response [9]: 98.4% | normalised response [10]: 99.5% | normalised response [11]: 101% | normalised response [12]: 97.8% | normalised response [13]: 96.3% | normalised response [14]: 95.4% | normalised response [15]: 106% | normalised response [16]: 95.4% | normalised response [17]: 90.3% | normalised response [18]: 89.5% | normalised response [19]: 96%

COc1ncc(-c2ccc3nccc(-c4ccnnc4)c3c2)cc1NS(=O)(=O)c1ccc(F)cc1F (1 nM)
normalised response [1]: 91.6% | normalised response [2]: 93.5% | normalised response [3]: 93% | normalised response [4]: 105% | normalised response [5]: 111% | normalised response [6]: 101% | normalised response [7]: 103% | normalised response [8]: 101% | normalised response [9]: 95.3% | normalised response [10]: 95.3% | normalised response [11]: 81.3% | normalised response [12]: 101% | normalised response [13]: 94.2% | normalised response [14]: 92.9% | normalised response [15]: 93.1% | normalised response [16]: 98.2% | normalised response [17]: 109% | normalised response [18]: 109% | normalised response [19]: 84.6%

CCOc1cc2ncc(C#N)c(Nc3ccc(OCc4ccccn4)c(Cl)c3)c2cc1NC(=O)/C=C/CN(C)C [Neratinib] (1 nM)
normalised response [1]: 100% | normalised response [2]: 96.3% | normalised response [3]: 96.9% | normalised response [4]: 107% | normalised response [5]: 80% | normalised response [6]: 94.5% | normalised response [7]: 105% | normalised response [8]: 101% | normalised response [9]: 99.2% | normalised response [10]: 96.7% | normalised response [11]: 93.8% | normalised response [12]: 104% | normalised response [13]: 109% | normalised response [14]: 107% | normalised response [15]: 97.1% | normalised response [16]: 99.5% | normalised response [17]: 101% | normalised response [18]: 106% | normalised response [19]: 73.3%

COc1cc(Nc2ncc(F)c(Nc3ccc4c(n3)NC(=O)C(C)(C)O4)n2)cc(OC)c1OC [Tamatinib] (10 nM)
normalised response [1]: 100% | normalised response [2]: 101% | normalised response [3]: 102% | normalised response [4]: 105% | normalised response [5]: 98.3% | normalised response [6]: 103% | normalised response [7]: 106% | normalised response [8]: 108% | normalised response [9]: 95.1% | normalised response [10]: 102% | normalised response [11]: 103% | normalised response [12]: 113% | normalised response [13]: 107% | normalised response [14]: 107% | normalised response [15]: 95.9% | normalised response [16]: 108% | normalised response [17]: 97.6% | normalised response [18]: 111% | normalised response [19]: 100%

C[C@@H]1C=C2C(=O)O[C@@H]3CC[C@H](C1)[C@]23O [Galiellalactone] (50 nM)
normalised response [1]: 104% | normalised response [2]: 98.9% | normalised response [3]: 102% | normalised response [4]: 111% | normalised response [5]: 101% | normalised response [6]: 102% | normalised response [7]: 105% | normalised response [8]: 107% | normalised response [9]: 98.2% | normalised response [10]: 102% | normalised response [11]: 104% | normalised response [12]: 104% | normalised response [13]: 114% | normalised response [14]: 104% | normalised response [15]: 106% | normalised response [16]: 108% | normalised response [17]: 106% | normalised response [18]: 114% | normalised response [19]: 112%

CCS(=O)(=O)c1cccc(-c2cc(C(=O)NC3CCN(C)CC3)c(C)c3[nH]c4ncc(C)cc4c23)c1 [TAK-901] (1 nM)
normalised response [1]: 98.5% | normalised response [2]: 101% | normalised response [3]: 98.1% | normalised response [4]: 108% | normalised response [5]: 87.8% | normalised response [6]: 98% | normalised response [7]: 108% | normalised response [8]: 108% | normalised response [9]: 117% | normalised response [10]: 94.2% | normalised response [11]: 96% | normalised response [12]: 103% | normalised response [13]: 113% | normalised response [14]: 101% | normalised response [15]: 95.5% | normalised response [16]: 97% | normalised response [17]: 110% | normalised response [18]: 112% | normalised response [19]: 100%

COC1=C2C[C@@H](C)C[C@H](OC)[C@H](O)[C@@H](C)/C=C(\C)[C@H](OC(N)=O)[C@@H](OC)/C=C\C=C(/C)C(=O)NC(=CC1=O)C2=O [Geldanamycin] (10 nM)
normalised response [1]: 106% | normalised response [2]: 97.3% | normalised response [3]: 102% | normalised response [4]: 113% | normalised response [5]: 112% | normalised response [6]: 99.6% | normalised response [7]: 105% | normalised response [8]: 101% | normalised response [9]: 101% | normalised response [10]: 99.9% | normalised response [11]: 100% | normalised response [12]: 108% | normalised response [13]: 106% | normalised response [14]: 105% | normalised response [15]: 104% | normalised response [16]: 106% | normalised response [17]: 105% | normalised response [18]: 105% | normalised response [19]: 110%

FC(F)c1nc2ccccc2n1-c1nc(N2CCOCC2)nc(N2CCOCC2)n1 [ZSTK474] (1 nM)
normalised response [1]: 98.8% | normalised response [2]: 104% | normalised response [3]: 97.7% | normalised response [4]: 96.8% | normalised response [5]: 81.5% | normalised response [6]: 92.5% | normalised response [7]: 96.6% | normalised response [8]: 96.8% | normalised response [9]: 101% | normalised response [10]: 100% | normalised response [11]: 101% | normalised response [12]: 102% | normalised response [13]: 106% | normalised response [14]: 99.7% | normalised response [15]: 97.9% | normalised response [16]: 106% | normalised response [17]: 100% | normalised response [18]: 99% | normalised response [19]: 97.7%
